In general, pIC50 refers to the negative decadic logarithm of the IC50, by convention in mol/L. Low values mean a large IC50, high ones a small IC50.

Results on 31 molecules are retold here after patent US8058285B2, “Substituted pyrido [3′, 2′: 4, 5] thieno [3, 2-D] pyrimidines and pyrido [3′, 2′: 4, 5] furo [3, 2-D] pyrimidines used as inhibitors of the PDE-4 and/or the release of TNF-ALPHA” (The Medicines Company (Leipzig) GmbH, priority 2004, dated 2011).

pIC50: −log10 of the molar value. Where a name gives a salt, the structure may show the parent alone.

The target of the assay is T1, PDE-4A (Homo sapiens, UniProt P27815).
T1 construct: PDE-4A catalytic domain comprising amino acids 342-704; made in house; host or cells: Escherichia coli
Nature of the assay: PDE-4A inhibitory assay (SPA). Format: biochemical. The source says: Human recombinant PDE-4A catalytic domain comprising amino acids 342-704 was cloned into Escherichia coli and expressed, as described by W. Richter et al., Protein Expression and Purification (2000) 19: 375-383. The other posphodiesterases were either obtained from cell lines of human origin (TPH1 monocytes line for PDE-1, MCF7 for PDE-5) or expressed recombinantly in sf9 insect cells (for PDE-3A, PDE-3B, PDE-7A and PDE-4D) in accordance with an adapted method by Luckow, V. A. et al., in: Recombinant DNA Technology & Applications., (1991) eds. Prokop, Bajpai, R. K. & Ho, C. S., pp 97-152.
The phosphodiesterase activity was determined by the SPA assay as described by the manufacturer Amersham Biosciences and by Horton J. K and Baxendale P. M., Methods Mol. Biol. (1995) 41: 91-105.
The reaction mixtures contained 100 mM Tris-HCl (pH 7.5), 5 mM MgCl2, 3.8 mM 2-mercaptoethanol, and 1 μM cAMP or cGMP as a substrate, the inhibitors at different concentrations and also further components required for the detection of the individual isoenzymes (see below). The reaction was started by adding the enzyme. The operating volume is 100 μl in the wells of a white 96-Well microtiter plate. The test substances were produced as stock solutions in DMSO. The DMSO concentration in the reaction batch was 1% v/v. The PDE activity is not impaired with this DMSO concentration. Having started the reaction by the addition of enzyme, the samples were incubated at 22° C. for 20 min. The reaction was stopped by the addition of SPA bead suspension which contains the zinc sulfate concentration provided according to the manufacturer. Then, the beads are allowed to sediment for 30 min and the plates are analyzed on the luminescence microtiter plate reader Fluostar Optima (BMG Labtechologies).
[^3H]-cAMP was used as a substrate for determining the activity of PDE-2, -3, -4 and -7 and [^3H]-cGMP for determining the activity of PDE-5. The non-specific enzyme activities were determined in the presence of 100 μM rolipram (for PDE-4) and in the presence of 100 μM IBMX (for PDE-3 and -5) and subtracted from the test values. The incubation samples of the PDE-3 assay contain 10 μM rolipram to inhibit possible contaminations by PDE-4. The PDE-2 activity is tested using a SPA assay by Amersham Biosciences in the presence of the PDE-2 activator 5 μM cGMP. […] The selectivity as to PDEs 2, 3 and 5 has a factor of 100 to 10 000.

T1 sequence (P27815 342-704): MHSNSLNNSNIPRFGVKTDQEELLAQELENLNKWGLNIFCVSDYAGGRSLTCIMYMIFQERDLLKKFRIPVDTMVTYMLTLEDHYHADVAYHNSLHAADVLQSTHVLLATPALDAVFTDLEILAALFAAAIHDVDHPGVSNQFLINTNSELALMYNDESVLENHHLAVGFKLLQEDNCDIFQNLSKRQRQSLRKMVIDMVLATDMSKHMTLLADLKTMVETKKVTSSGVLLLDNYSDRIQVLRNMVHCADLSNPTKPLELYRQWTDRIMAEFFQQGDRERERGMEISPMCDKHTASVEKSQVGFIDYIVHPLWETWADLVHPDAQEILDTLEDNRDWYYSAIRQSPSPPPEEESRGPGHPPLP

For the molecule `CCOc1nc(N2CCNCC2)nc2c1sc1nc(-c3ccc(OC(C)C)cc3)nc(C)c12` [4-Ethoxy-9-methyl-2-piperazin-1-yl-7-(4-iso-propoxy-phenyl)-thieno[2,3-d:4,5-d′]dipyrimidine], the negative-log IC50 (pIC50) is 7.30 to 8.70. Next, `CCOc1nc(N2CCNCC2)nc2c1sc1nc(-c3cccc4ccccc34)nc(C)c12` [4-Ethoxy-9-methyl-7-(1-naphthyl)-2-piperazin-1-yl-thieno[2,3-d:4,5-d′]dipyrimidine]: 7.30 to 8.70. `CCOc1nc(N2CCNCC2)nc2c1sc1nc(-c3ccc4c(c3)OCO4)cc(C)c12` [4-Ethoxy-9-methyl-7-(3,4-methylenedioxyphenyl)-2-piperazin-1-yl-pyrido[3′,2′:4,5]thieno-[3,2-d]pyrimidine] gave a pIC50 of 7.30 to 8.70. Next, `CCOc1nc(N2CCNCC2)nc2c1sc1nc(-c3ccc(C)cc3)cc(C)c12` [4-Ethoxy-9-methyl-7-(4-methyl-phenyl)-2-(piperazin-1-yl)-pyrido[3′,2′:4,5]thieno[3,2-d]pyrimidine]: 7.30 to 8.70; `CCOc1nc(N2CCNCC2)nc2c1sc1nc(-c3ccc(SC)cc3)cc(C)c12` [4-Ethoxy-9-methyl-7-(4-methylthio-phenyl)-2-piperazin-1-yl-pyrido[3′,2′:4,5]thieno[3,2-d]pyrimidine]: 7.30 to 8.70; `CCOc1nc(N2CCNCC2)nc2c1sc1nc(-c3ccc(Oc4ccccc4)cc3)nc(C)c12` [4-Ethoxy-9-methyl-7-(4-phenoxy-phenyl)-2-piperazin-1-yl-thieno[2,3-d:4,5-d′]dipyrimidine]: over 8.70. Next, `CCOc1nc(N2CCNCC2)nc2c1sc1nc(N3CCOCC3)cc(C)c12` [4-Ethoxy-9-methyl-7-morpholino-2-(piperazin-1-yl)-pyrido[3′,2′:4,5]thieno[3,2-d]pyrimidine]: 7.30 to 8.70; `CCOc1nc(N2CCNCC2)nc2c1sc1nc(-c3ccccc3)nc(C)c12` [4-Ethoxy-9-methyl-7-phenyl-2-piperazin-1-yl-thieno[2,3-d:4,5-d′]dipyrimidine]: 7.30 to 8.70.

`CCOc1nc(N2CCNCC2)nc2c1sc1nc(-c3cccs3)cc(C)c12` [4-Ethoxy-9-methyl-7-thien-2-yl-2-(piperazin-1-yl)-pyrido[3′,2′:4,5]thieno[3,2-d]pyrimidine] had a pIC50 of 7.30 to 8.70. The result for `CCOc1nc(N2CCNCC2)nc2c1sc1nc(N3CCSCC3)cc(C)c12` [4-Ethoxy-9-methyl-7-thiomorpholino-2-(piperazin-1-yl)-pyrido[3′,2′:4,5]thieno[3,2-d]pyrimidine-hydrochloride] reads 7.30 to 8.70; that for `CCOc1nc(N2CCNCC2)nc2c1sc1nc(-c3ccccc3)c(Cc3ccc([N+](=O)[O-])cc3)c(C)c12` [4-Ethoxy-9-methyl-8-(4-nitro-benzyl)-7-phenyl-2-(piperazin-1-yl)-pyrido[3′,2′:4,5]thieno[3,2-d]pyrimidine], 7.30 to 8.70. Regarding `CCOc1nc(N2CCNCC2)nc2c1sc1nc(-c3ccc(-n4cccc4)cc3)cc(C(F)(F)F)c12` [4-Ethoxy-9-trifluoromethyl-2-piperazin-1-yl-7-(4-(1H-pyrrol-1-yl)-phenyl)-pyrido[3′,2′:4,5]thieno[3,2-d]pyrimidine], the pIC50 was over 8.70.

In turn, `CCOC(=O)c1ccc(-c2cc(C(F)(F)F)c3c(n2)sc2c(OCC)nc(N4CCNCC4)nc23)cc1` [4-[4-Ethoxy-2-(piperazin-1-yl)-9-trifluoromethyl-pyrido[3′,2′:4,5]thieno[3,2-d]pyrimidin-7-yl]-benzoic acid ethyl ester] gave a pIC50 of over 8.70. Next, `CCOc1nc(N2CCNCC2)nc2c1sc1nc3c(c(C(F)(F)F)c12)CCc1cc(OC)ccc1-3` [5,6-Dihydro-11-ethoxy-3′-methoxy-9-piperazin-1-yl-7-trifluoromethyl-benzo[h]pyrimido[4′,5′:4,5]thieno[2,3-b]quinoline]: over 8.70. Regarding `CCOc1nc(N2CCNCC2)nc2c1sc1nc(-c3ccc4c(c3)OCCO4)cc(C(F)(F)F)c12` [7-(2,3-Dihydrobenzo[b][1,4]dioxin-6-yl)-4-ethoxy-2-(piperazin-1-yl)-9-trifluoromethyl-pyrido[3′,2′:4,5]thieno[3,2-d]pyrimidine], the pIC50 was over 8.70.

In the case of `CCCc1nc(N2CCNCC2)c2sc3nc(-c4ccc(OC)c(OC)c4)cc(C)c3c2n1` [7-(3,4-Dimethoxy-phenyl)-9-methyl-4-(piperazin-1-yl)-2-n-propyl-pyrido[3′,2′:4,5]thieno[3,2-d]pyrimidine], the pIC50 was 7.30 to 8.70.

`CCOc1nc(N2CCNCC2)nc2c1sc1nc(-c3cccc(N)c3)cc(C(F)(F)F)c12` [7-(3-Amino-phenyl)-4-Ethoxy-2-piperazin-1-yl-9-trifluoromethyl-pyrido[3′,2′:4,5]thieno[3,2-d]pyrimidine] showed a pIC50 of 7.30 to 8.70. With `CCOc1nc(N2CCNCC2)nc2c1sc1nc(-c3cccc(C#N)c3)cc(C(F)(F)F)c12` [7-(3-Cyano-phenyl)-4-ethoxy-2-piperazin-1-yl-9-trifluoromethyl-pyrido[3′,2′:4,5]thieno[3,2-d]pyrimidine], the pIC50 is over 8.70. Next, `CCOc1nc(N2CCNCC2)nc2c1sc1nc(-c3ccc(-c4ccc(OC)c(OC)c4)cc3)nc(C)c12` [7-(3′,4′-Dimethoxybiphen-4-yl)-4-ethoxy-9-methyl-2-piperazin-1-yl-thieno[2,3-d:4,5-d′]dipyrimidine]: over 8.70. The result for `CCOc1nc(N2CCNCC2)nc2c1sc1nc(-c3ccc(N)cc3)cc(C(F)(F)F)c12` [7-(4-Amino-phenyl)-4-ethoxy-2-piperazin-1-yl-9-trifluoromethyl-pyrido[3′,2′:4,5]thieno[3,2-d]pyrimidine] reads 7.30 to 8.70; that for `CCOc1nc(N2CCNCC2)nc2c1sc1nc(-c3ccc(-c4ccccc4)cc3)nc(C)c12` [7-(4-Biphenyl)-4-ethoxy-9-methyl-2-piperazin-1-yl-thieno[2,3-d:4,5-d′]dipyrimidine], 7.30 to 8.70; that for `CCOc1nc(N2CCNCC2)nc2c1sc1nc(-c3ccc(Br)cc3)cc(CC)c12` [7-(4-Bromo-phenyl)-4-ethoxy-9-ethyl-2-(piperazin-1-yl)-pyrido[3′,2′:4,5]thieno[3,2-d]pyrimidine], over 8.70. As to `CCOc1nc(N2CCNCC2)nc2c1sc1nc(-c3ccc(Br)cc3)cc(C)c12` [7-(4-Bromo-phenyl)-4-ethoxy-9-methyl-2-(piperazin-1-yl)-pyrido[3′,2′:4,5]thieno[3,2-d]pyrimidine], the pIC50 was 7.30 to 8.70. The result for `CCOc1nc(N2CCNCC2)nc2c1sc1nc(-c3ccc(Br)cc3)nc(C)c12` [7-(4-Bromo-phenyl)-4-ethoxy-9-methyl-2-piperazin-1-yl-thieno[2,3-d:4,5-d′]dipyrimidine] reads 7.30 to 8.70; that for `CCOc1nc(N2CCNCC2)nc2c1sc1nc(-c3ccc(Cl)cc3)cc(CC)c12` [7-(4-Chloro-phenyl)-9-ethyl-4-ethoxy-2-(piperazin-1-yl)-pyrido[3′,2′:4,5]thieno[3,2-d]pyrimidine], 7.30 to 8.70; that for `CCOc1nc(N2CCNCC2)nc2c1sc1nc(-c3ccc(C#N)cc3)cc(C(F)(F)F)c12` [7-(4-Cyano-phenyl)-4-ethoxy-2-piperazin-1-yl-9-trifluoromethyl-pyrido[3′,2′:4,5]thieno[3,2-d]pyrimidine], 7.30 to 8.70. As to `CCCOc1nc(N2CCNCC2)nc2c1sc1nc(-c3ccc(OCC)cc3)cc(CC)c12` [7-(4-Ethoxy-phenyl)-9-ethyl-2-(piperazin-1-yl)-4-n-propoxy-pyrido[3′,2′:4,5]thieno[3,2-d]pyrimidine], the pIC50 was over 8.70. The molecule `CCCOc1nc(N2CCNCC2)c2sc3nc(-c4ccc(OCC)cc4)cc(CC)c3c2n1` [7-(4-Ethoxy-phenyl)-9-ethyl-4-(piperazin-1-yl)-2-n-propoxy-pyrido[3′,2′:4,5]thieno[3,2-d]pyrimidine] gave a pIC50 of 7.30 to 8.70. With `CCOc1nc(N2CCNCC2)nc2c1sc1nc(-c3ccc(-c4c(C)noc4C)cc3)nc(C)c12` [7-(4-[3,5-Dimethyl-isoxazol-4-yl]-phenyl)-4-ethoxy-9-methyl-2-piperazin-1-yl-thieno[2,3-d:4,5-d′]dipyrimidine], the negative logarithm of the IC50 (pIC50) is over 8.70. The result for `CCCCOc1ccc(Oc2ccc(-c3nc(C)c4c(n3)sc3c(OCC)nc(N5CCNCC5)nc34)cc2)cc1` [7-(4-[4-n-Butoxy-phenoxy]phenyl)-4-ethoxy-9-methyl-2-piperazin-1-yl-thieno[2,3-d:4,5-d′]dipyrimidine] reads 7.30 to 8.70. The result for `CCOc1nc(N2CCNCC2)nc2c1sc1nc(-c3ccc(C(C)(C)C)cc3)nc(C)c12` [7-(4-tert-Butyl-phenyl)-4-ethoxy-9-methyl-2-piperazin-1-yl-thieno[2,3-d:4,5-d′]dipyrimidine] reads 7.30 to 8.70.
